Laboratory results reported in patent US20240209456A1, “METHODS AND COMPOSITIONS RELATED TO CELL-CYCLE RNA's” (BETH ISRAEL DEACONESS MEDICAL CENTER, priority 2021, published 2024).
*1 amine or outer side, *2 acyl side, *3 side chain or, on linkers, in order; H or OH if unused. Where a SMILES comes first, the peptide text is derived from it. Bridges are numbered along the chain shown (N, C = ends). Roman numbers before positions name the chains, in order. [ ]: non-standard residue; d: D form. Actinocin(9to1) = Cc1c2oc3c(C)ccc(C(=O)[*:1])c3nc-2c(C(=O)[*:2])c(N)c1=O; NMeV = CN[C@H](C(=O)O)C(C)C; Sar = CNCC(=O)O

What was measured:
Format in all cases: cell-based, human
[1] = system: HL-60 cells; assay: nasRNA-seq, genome wide transcription inhibition upon DRB and ActD treatment; settings: HL-60 released from double thymidine block, 2 hr, DRB 200 μM, ActD 0.8 μM; for average gene expression reduction: vs DMSO
Description: Nascent RNA/DNA capture was performed using Click-iT Nascent RNA Capture Kit (ThermoFisher) according to the manufacturer's instructions with minor modifications. Briefly, 1. Labeling the cells with EU/EdU. 200 mM EU or 30 mM EdU stock solutions were added to the cells, to a final concentration 0.5 mM or 30 μM, respectively. 2. Incubation. The cells were incubated for 1 or 2 hours. 3. RNA/DNA isolation. The cells were harvested and the RNA/DNA were isolated and dissolved in 14 μL of H2O. 4. Biotinylation of RNA/DNA by Click reaction. Click-iT reaction cocktail (50 μL per reaction) was prepared accordingly to manufacturer's instructions: a mixture containing 1× Click-iT EU buffer; 2 mM CuSO4; 1 mM Biotin azide; 13.25 μL of the isolated RNA; 10 mM Click-iT reaction buffer additive 1; 12 mM Click-iT reaction buffer additive 2 was prepared. After adding each component, the reaction cocktail was gently mixed by vortexing. The addition of the Click-iT reaction buffer additive 1 stock initiates the click reaction between the EU-RNA/EdU-DNA and biotin azide. Afterwards the Click-iT® reaction buffer additive 2 is added and incubated for 30 minutes with gentle vortexing. 5. RNA/DNA precipitation. 1 μL of ULTRAPURE™ Glycogen, 55 μL of 7 M ammonium acetate, and 750 μL of chilled 100% ethanol were added to the click reaction, incubated at −70° C. for at least 30 minutes and after centrifugation the pellet was dissolved in 125 μL of H2O. 6. Binding biotinylated RNA/DNA to Dynabeads® MYONE™ Streptavidin Ti magnetic beads. The RNA/DNA binding reaction mixture included: 125 μL 2×Click-iT RNA binding buffer; 2 μL Ribonuclease Inhibitor or 2 μL of water for DNA; 125 μL of the isolated biotinylated RNA/DNA. The RNA binding reaction mixture was heated at 68-70° C. for 5 minutes and 50 μL of bead suspension added into the heated RNA binding reaction mixture. The tube containing the RNA/DNA binding reaction was incubated at r.t. for 30 min while gently vortexing to prevent the beads from settling. The beads were immobilized using the magnet and washed 5 times with 500 μL of Click-iT® reaction wash buffer 1 and 5 times with 500 μL of Click-iT® reaction wash buffer 2. Finally, the beads were resuspended in 50 μL of Click-iT reaction wash buffer 2 and the captured RNA immediately processed to cDNA synthesis. The captured DNA was released into 50 μL of boiling water and used in qPCR analyses.
Double Thymidine block (early S-phase block) was carried out as described. […] Synchrony was monitored by flow cytometry analysis of propidium iodide-stained cells using a LSRII flow cytometer (BD Biosciences) at the Harvard Stem Cell Institute/Beth Israel Deaconess Center flow cytometry facility. […]

[2] = system: TIP60; assay: Western blot of total proteins, TIP60; settings: HL-60, 2 hours treatment, FIG. 10A
Description: (§1) Whole-cell lysates from approximately 0.2×10^6 cells per each sample were separated on 12% SDS-PAGE gels and transferred to a nitrocellulose membrane. Immunoblots were stained overnight at 4° C. with the following primary antibodies: H2A.Z (1:2,000; Abcam ab4174), H2A.Z acetyl (K4+K7+K11) (1:2,000; Abcam ab18262) or TIP60 (1:1000; generous gift from Bruno Amati). All secondary horseradish peroxidase (HRP)-conjugated antibodies were diluted 1:5,000 and incubated for 1 hr at room temperature with TBST/5% BSA. Immuno-reactive proteins were detected using the Pierce® ECL system (Thermo Scientific #32106).

[3] = system: H2A.Z; assay: Western blot of total proteins, H2A.Z; settings: HL-60, 2 hours treatment, FIG. 10A
Description: as §1

Compound	gene expression reduction ratio across distributions (treated/DMSO) [1]	average gene expression reduction [1] [%]	overall global content of TIP60 [2]	overall global content of H2A.Z [3]
Cc1c2oc3c(C)ccc(C(=O)N[C@@H]4C(=O)N[C@H](C(C)C)C(=O)N5CCC[C@H]5C(=O)N(C)CC(=O)N(C)[C@@H](C(C)C)C(=O)O[C@@H]4C)c3nc-2c(C(=O)N[C@@H]2C(=O)N[C@H](C(C)C)C(=O)N3CCC[C@H]3C(=O)N(C)CC(=O)N(C)[C@@H](C(C)C)C(=O)O[C@@H]2C)c(N)c1=O [ActD, Actinomycin D] (I: T[dV]P[Sar][NMeV] / II: T[dV]P[Sar][NMeV]; ester I:1-I:C, II:1-II:C; linker I:N-II:N via Actinocin(9to1))	0.21	79	not affected	not affected
OC[C@H]1O[C@@H](n2cnc3cc(Cl)c(Cl)cc32)[C@H](O)[C@@H]1O [DRB, 5,6-Dichlorobenzimidazole 1-β-D-ribofuranoside]	0.45	55	not affected	not affected
